This note sets out measurements from paper PMC12386367, “Importin α3 Is Tolerant to Nuclear Localization Signal Chirality” (International Journal of Molecular Sciences, 2025).

Non-standard residues stand in square brackets, D forms with d. Residues, ends and D or L forms follow the SMILES beside them. d(pT) = C[C@H](OP(=O)(O)O)[C@@H](N)C(=O)O

One data set has as its target T1, ∆Impα3 (Homo sapiens, UniProt O00629).
T1 construct: IBB-depleted species of Impα3 (residues 64–521 of the intact protein); made in house
T1 sequence (O00629 64-521): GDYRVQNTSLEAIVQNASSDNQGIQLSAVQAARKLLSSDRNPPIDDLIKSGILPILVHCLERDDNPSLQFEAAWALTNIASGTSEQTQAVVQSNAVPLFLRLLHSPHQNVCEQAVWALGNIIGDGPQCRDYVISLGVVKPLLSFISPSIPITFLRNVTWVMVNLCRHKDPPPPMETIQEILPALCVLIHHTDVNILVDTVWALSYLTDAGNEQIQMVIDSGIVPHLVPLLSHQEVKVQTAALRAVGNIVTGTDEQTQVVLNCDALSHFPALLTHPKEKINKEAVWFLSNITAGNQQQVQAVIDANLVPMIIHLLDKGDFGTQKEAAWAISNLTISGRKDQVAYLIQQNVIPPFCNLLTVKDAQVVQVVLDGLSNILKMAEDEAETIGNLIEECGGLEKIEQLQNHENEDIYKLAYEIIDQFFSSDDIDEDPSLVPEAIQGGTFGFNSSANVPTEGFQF
Nature of the data set: Biolayer interferometry (BLI) binding to ∆Impα3. As to conditions: peptide 1–10 μM, 25 °C; for kon: BLItz, ∆Impα3 immobilized via His-tag (0.25 μM), 10 × kinetics buffer, error from pseudo-first order fit, at least two repeats, read-out: kon; for koff: ∆Impα3 immobilized via His-tag, error from pseudo-first order fit (Equation 5). The protocol: (§1) The association (kon) and dissociation (koff) rate constants of the binding of D-NLS peptides to either Impα3 or ∆Impα3 were determined by using a BLItz system (ForteBio, Pall, Barcelona, Spain). The buffer used in the experiments was that recommended by the manufacturer. […] The peptide concentrations were in a range from 1 to 10 μM during the association step. The general scheme of the protein association/dissociation reactions in the BLItz system for the D-NLS peptides was as follows: 30 s of initial baseline acquisition with the 10 × kinetics buffer (provided by the manufacturer); 120 s of loading either Impα3 and ∆Impα3 into the biosensor; 30 s of baseline acquisition with the 10 × kinetics buffer; 120 s of association of each peptide to the biosensor (which had been previously loaded with the importin species); and 120 s of monitoring of the dissociation of each peptide from the biosensor. All experiments were carried out at 25 °C.
(§2) Fittings of the BLI sensorgrams was carried out by using KaleidaGraph, as previously described. The interferometry response during the association step, R(t) (measured in response units, RU), and the binding rate, dR(t)/dt, could be used to evaluate the kinetics of the formation of the complex between Impα3/∆Impα3 and each D-NLS, according to:(2) dR/dt=konD-NLSRmax−Rt−koffR(t) where Rmax is proportional to the total concentration of biosensor-bound importin species; and [D-NLS] represents the concentration of the corresponding D-NLS peptide.
(§3) In Equation (2), R(t) is given by:(3) Rt= Req−Reqe^(−kobs t−t0) where Req is the steady-state (or equilibrium) response obtained at infinite time, when dR(t)/dt = 0, and t0 = 180 s is the time at which the association step between biosensor-immobilized Impα3/∆Impα3 and D-NLS in the solution started. We fitted the experimentally obtained R(t) under any condition as:(4) Rt= Req−Reqe^−kobs t−t0−R’eq(t−t0) where R^′eq was included to consider the lineal drift observed at longer times.
(§4) The dissociation process was always fitted to a single exponential, with R(t) given by:(6) Rt=R1 e^(−kofft−t0)−R^″eq(t−t0) where t0 = 300 is the time at which the dissociation of the D-NLS from the biosensor-bound Impα3/∆Impα3 started in our experimental set-up, R1 is the response level when dissociation starts, and the parameter R^″eq considers the linear drift observed at longer times.
(§5) The experiments were repeated at least twice for each peptide with each importin species.
Background: In BLI a coated tip is dipped into the sample, and binding shifts an interference pattern.

For another data set, the target named is T2, Impα3 (Homo sapiens, UniProt O00629).
T2 construct: Human importin α3 isoform (residues 1–521); made in house
T2 sequence (O00629 1-521): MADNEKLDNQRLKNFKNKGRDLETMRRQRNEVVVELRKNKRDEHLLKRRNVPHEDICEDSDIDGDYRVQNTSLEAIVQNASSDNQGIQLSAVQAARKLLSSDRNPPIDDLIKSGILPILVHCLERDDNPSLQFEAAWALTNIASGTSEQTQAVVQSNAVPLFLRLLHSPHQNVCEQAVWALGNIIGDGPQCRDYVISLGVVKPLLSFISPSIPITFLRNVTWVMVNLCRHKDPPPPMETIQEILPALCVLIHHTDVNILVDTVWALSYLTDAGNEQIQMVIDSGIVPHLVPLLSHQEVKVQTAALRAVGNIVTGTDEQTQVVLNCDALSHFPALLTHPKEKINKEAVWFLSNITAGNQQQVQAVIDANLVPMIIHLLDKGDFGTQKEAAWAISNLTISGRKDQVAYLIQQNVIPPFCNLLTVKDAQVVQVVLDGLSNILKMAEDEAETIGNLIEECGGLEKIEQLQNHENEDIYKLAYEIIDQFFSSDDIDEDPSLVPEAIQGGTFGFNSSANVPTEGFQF
Nature of the data set: Biolayer interferometry (BLI) binding to Impα3. As to conditions: peptide 1–10 μM, 25 °C; for kon: BLItz, Impα3 immobilized via His-tag (0.25 μM), 10 × kinetics buffer, error from pseudo-first order fit, at least two repeats, read-out: kon; for koff: Impα3 immobilized via His-tag, error from pseudo-first order fit (Equation 5). The protocol:
as §1, §2, §3, §4, §5

A short description of data set [1]: Translational diffusion NMR (DOSY) of NLS peptides. Type of data set: physicochemical. As to conditions: ~100 μM peptide, 50 mM deuterated Tris pH 7.2, 100% D2O, 10 °C. The source says:
For the four peptides, we measured the experimental value of D for dioxane ranging from (1.2 ± 0.1) × 10^−5 to (1.05 ± 0.02) × 10^−5 cm^2 s^−1 in each solution containing the corresponding peptide; we assumed a hydrodynamic radius of 2.12 Å for dioxane (Table 1) under any condition. […] Furthermore, the values of D were similar for the D- and L-peptides, and the latter were already being described as disordered. Thus, we can conclude that the four D-peptides were monomeric and disordered, like the L-form counterparts, and, then, there was no difference in the hydrodynamic properties of the peptides by changing the enantiomeric nature of the residues.
The NMR spectra were acquired at 10 °C on a Bruker Avance III spectrometer (Bruker GmbH, Mannheim, Germany), equipped with a triple-resonance probe and z-pulse field gradients. All NMR experiments with D-NLS peptides were carried out in 50 mM deuterated Tris buffer (not corrected for isotope effects), pH 7.2. Spectra were calibrated with TSP, by considering pH-dependent changes in its chemical shifts; probe temperature was calibrated with pure methanol.
The typical D-NLS peptide concentrations in DOSY experiments were ~100 μM, and 128 scans were acquired, in which the gradient strength was varied linearly in sixteen steps, between 2 and 95% of the total power of the gradient coil. Measurements of the translational self-diffusion coefficient, D, were performed with the pulsed-gradient spin-echo sequence in the presence of 100% D2O. Details on the experimental conditions and fitting of the resulting curves have been described elsewhere. Gradient strength was calibrated by using the value of D for the residual proton water signal in a sample containing 100% D2O, in a 5 mm tube [23]. Gradient length was 2.5 ms; the time between the two pulse gradients in the sequence was 250 ms; and the recovery delay between the bipolar gradients was 100 μs. The signals from methyl groups between 0.8 and 1.0 ppm were used for peak integration, for all the D-NLS peptides. A final concentration of 1% of dioxane, which was assumed to have a hydrodynamic radius Rh of 2.12 Å [23], was added to the solution of each peptide.

Data set [2] deals with T3, IBB-depleted species of Impα3 (residues 64–521 of the intact protein) (human, UniProt O00629 64-521).
T3 construct: PDB 5XZX was used only as the model of ∆Impα3 for docking; its limits may differ from 64-521; also called ΔImpα3; truncated importin species
T3 sequence (looked up): T1 sequence (O00629 64-521)
Briefly: BLI; His-tagged Impα3 or ∆Impα3 immobilised on His-tag biosensors at 0.25 μM; peptides 1 to 10 μM; BLItz system, manufacturer's 10x kinetics buffer; 25 °C; kon and koff from pseudo-first-order plots; apparent Kd = koff/kon, two-state process assumed. As to conditions: both partners purified.

For data set [3], the target named is T4, Human importin α3 isoform (residues 1–521) (human, UniProt O00629 1-521).
T4 construct: human importin α3 (Impα3, KPNA4), residues 1-521, intact protein with the N-terminal IBB domain; The materials list Ni2+-resin, ampicillin and IPTG, so expression in E. coli is surmised; also called Impα3; KPNA4
T4 sequence (looked up): T2 sequence (O00629 1-521)
The description is as above. As to conditions: both partners purified.

For orientation: kon means the rate constant with which the complex forms. For orientation: koff means the rate constant with which the complex falls apart. As to `CC(=O)N[C@H](Cc1ccc(O)cc1)C(=O)N[C@@H](C(=O)N[C@H](CC(N)=O)C(=O)N[C@H](CCCNC(=N)N)C(=O)N1CCC[C@@H]1C(=O)N[C@H](CO)C(=O)N1CCC[C@@H]1C(=O)NCC(=O)NCC(=O)N[C@H](Cc1c[nH]cn1)C(=O)N[C@H](CCC(=O)O)C(=O)N[C@H](CCCNC(=N)N)C(=O)N[C@H](CCCCN)C(=O)N[C@H](CC(C)C)C(=O)N[C@@H](C(=O)N[C@@H](C(=O)N[C@H](CCCCN)C(=O)N[C@H](CC(C)C)C(=O)N[C@H](CCC(N)=O)C(=O)N[C@H](CC(N)=O)C(=O)N[C@H](CO)C(=O)N[C@H](CCC(=O)O)C(N)=O)[C@H](C)OP(=O)(O)O)C(C)C)[C@H](C)O` [D-NLS-NUPR1phospho] (Ac-[dY][dT][dN][dR][dP][dS][dP]GG[dH][dE][dR][dK][dL][dV][d(pT)][dK][dL][dQ][dN][dS][dE]-NH2), at ∆Impα3, the kon worked out at 6000 ± 1000 M⁻¹ s⁻¹ and the koff was found to be 0.05 ± 0.01 s⁻¹. In addition, on Impα3, the kon came to 10000 ± 3000 M⁻¹ s⁻¹ and the koff stood at 0.13 ± 0.02 s⁻¹. In addition, in data set [1], the “Diffusion coefficient D” value is reported as 2.2 ± 0.2 cm^2 s^−1 × 10^6.

As to `CC[C@@H](C)[C@@H](NC(=O)[C@@H](CCCCN)NC(=O)[C@@H](CCC(N)=O)NC(=O)[C@@H](CCC(N)=O)NC(=O)[C@@H](CCCCN)NC(=O)[C@@H](CCCCN)NC(=O)[C@@H](CCCCN)NC(=O)[C@@H](CCCCN)NC(=O)[C@H](NC(=O)CNC(=O)[C@@H](CCC(=O)O)NC(=O)[C@@H](Cc1ccccc1)NC(=O)[C@@H](CC(C)C)NC(=O)[C@@H](CC(C)C)NC(=O)[C@@H](C)NC(=O)[C@@H](CCC(=O)O)NC(=O)CNC(=O)[C@@H](Cc1c[nH]cn1)NC(=O)CNC(=O)[C@@H](CCC(=O)O)NC(=O)[C@@H](CC(N)=O)NC(=O)[C@@H](CCC(N)=O)NC(=O)[C@@H](CCC(N)=O)NC(=O)[C@@H](CCC(=O)O)NC(=O)[C@@H](CCC(N)=O)NC(=O)[C@@H](Cc1ccccc1)NC(=O)[C@@H](CC(C)C)NC(=O)[C@@H](CCCCN)NC(C)=O)[C@H](C)CC)C(N)=O` [D-NLS-PADI] (Ac-[dK][dL][dF][dQ][dE][dQ][dQ][dN][dE]G[dH]G[dE][dA][dL][dL][dF][dE]G[dI][dK][dK][dK][dK][dQ][dQ][dK][dI]-NH2), on ∆Impα3, the kon was determined as 60000 ± 10000 M⁻¹ s⁻¹ and the koff is 0.37 ± 0.05 s⁻¹. For the same molecule, at Impα3, the kon is 45000 ± 20000 M⁻¹ s⁻¹ and the koff is 0.6 ± 0.1 s⁻¹. Also, in data set [1], the “Diffusion coefficient D” value is on record as 1.0 ± 0.1 cm^2 s^−1 × 10^6.

B1: D-enantiomeric, isolated NLS region of NUPR1 (residues 54–74 of the intact protein) (peptide)
peptide: Ac-[dY][dT][dN][dR][dP][dS][dP]GG[dH][dE][dR][dK][dL][dV][dT][dK][dL][dQ][dN][dS][dE]-NH2
notes: NLS region of NUPR1 (nuclear protein 1), residues 54-74 of the intact protein, made of D-amino acids; also called D-NLS-NUPR1; wild-type D-NLS-NUPR1; source: synthetic peptide (Genscript, purity higher than 95%)
B1: the kon in data set [2] turned out to be 110000 M⁻¹ s⁻¹; in data set [3], 50000 M⁻¹ s⁻¹.

B2: D-enantiomeric, isolated NLS region of NUPR1 with phosphorylated Thr68 (peptide)
peptide: Ac-[dY][dT][dN][dR][dP][dS][dP]GG[dH][dE][dR][dK][dL][dV][d(pT)][dK][dL][dQ][dN][dS][dE]-NH2
SMILES: CC(=O)N[C@H](Cc1ccc(O)cc1)C(=O)N[C@@H](C(=O)N[C@H](CC(N)=O)C(=O)N[C@H](CCCNC(=N)N)C(=O)N1CCC[C@@H]1C(=O)N[C@H](CO)C(=O)N1CCC[C@@H]1C(=O)NCC(=O)NCC(=O)N[C@H](Cc1c[nH]cn1)C(=O)N[C@H](CCC(=O)O)C(=O)N[C@H](CCCNC(=N)N)C(=O)N[C@H](CCCCN)C(=O)N[C@H](CC(C)C)C(=O)N[C@@H](C(=O)N[C@@H](C(=O)N[C@H](CCCCN)C(=O)N[C@H](CC(C)C)C(=O)N[C@H](CCC(N)=O)C(=O)N[C@H](CC(N)=O)C(=O)N[C@H](CO)C(=O)N[C@H](CCC(=O)O)C(N)=O)[C@H](C)OP(=O)(O)O)C(C)C)[C@H](C)O
notes: NLS region of NUPR1 (nuclear protein 1), residues 54-74 of the intact protein, made of D-amino acids, Thr68 phosphorylated; Mirror-image (all-D) peptide; also called D-NLS-NUPR1phospho; source: synthetic peptide (Genscript, purity higher than 95%)
For the molecule B2, in data set [2], the Kd is 8 µM, the off-rate constant (koff) was 0.05 s⁻¹ and the kon came to 6000 M⁻¹ s⁻¹. In addition, in data set [3], the Kd was found to be 13 µM, the koff was found to be 0.13 s⁻¹ and the kon turned out to be 10000 M⁻¹ s⁻¹.
